Test results from patent publication US20210251963A1, “UREA DERIVATIVES FOR USE IN THE TREATMENT OF SUBJECTS WITH ELEVATED EXPRESSION AND/OR ACTIVITY OF SRPK1” (Scandion Oncology A/S, priority 2018, published 2021).

Tests used:
Assay in all cases: Premier Screen kinase activity screening (33P ATP filter binding)
Assay type in all cases: biochemical
EPH-B1 = target: T1, EPH-B1 (Homo sapiens, UniProt P54762); settings: 10 μM SCO-101, mean of assay duplicates, read-out: Kinase activity (percentage of DMSO control)
T1 construct: purchased MRC in Dundee (Premier Screen service)
Text: (§1) The kinase activity screening was done at MRC in Dundee. The screen was a so-called “Premier Screen” with 140 kinases. More specific information can be found here: http://www.kinase-screen.mrc.ac.uk/services/premier-screen
(§2) The method is based on a radioactive filter binding assay using 33P ATP (Hastie, et al 2006. Nat Protoc. 2006; 1(2):968-71; Bain, et al 2007. Biochem J. 2007 Dec. 15; 408(3):297-315). This method is sensitive, accurate and provides a direct measure of kinase enzyme activity. A concentration of 10 μM SCO-101 was used.
(§3) In the table below, the data is portrayed as the mean percentage activity of assay duplicates and a standard deviation. These percentage activities were calculated in comparison to DMSO controls. 10 μM SCO-101 reduced the activity of SRPK1 to 6% of the DMSO control.

JNK1 = target: T2, JNK1 (Homo sapiens, UniProt P45983); settings: 10 μM SCO-101, mean of assay duplicates, read-out: Kinase activity (percentage of DMSO control)
T2 construct: purchased MRC Dundee, Premier Screen (contract screening service)
Text: as §1, §2, §3

MST4 = MST4 (Homo sapiens, UniProt Q9P289); settings: 10 μM SCO-101, mean of assay duplicates, read-out: Kinase activity (percentage of DMSO control)
Text: as §1, §2, §3

CHK1 = target: T3, CHK1 (Homo sapiens, UniProt O14757); settings: 10 μM SCO-101, mean of assay duplicates, read-out: Kinase activity (percentage of DMSO control)
T3 construct: purchased MRC in Dundee (Premier Screen service)
Text: as §1, §2, §3

PAK6 = PAK6 (Homo sapiens, UniProt Q9NQU5); settings: 10 μM SCO-101, mean of assay duplicates, read-out: Kinase activity (percentage of DMSO control)
Text: as §1, §2, §3

JNK2 = target: T4, JNK2 (Homo sapiens, UniProt P45984); settings: 10 μM SCO-101, mean of assay duplicates, read-out: Kinase activity (percentage of DMSO control)
T4 construct: purchased MRC Dundee, Premier Screen (contract screening service)
Text: as §1, §2, §3

ERK5 = target: T5, ERK5 (Homo sapiens, UniProt Q13164); settings: 10 μM SCO-101, mean of assay duplicates, read-out: Kinase activity (percentage of DMSO control)
T5 construct: MRC in Dundee (screening service)
Text: as §1, §2, §3

PHK = settings: 10 μM SCO-101, mean of assay duplicates
Text: as §1, §2, §3

IRR = target: T6, IRR (Homo sapiens, UniProt P14616); settings: 10 μM SCO-101, mean of assay duplicates, read-out: Kinase activity (percentage of DMSO control)
T6 construct: purchased MRC in Dundee (Premier Screen service)
Text: as §1, §2, §3

MST2 = target: T7, MST2 (Homo sapiens, UniProt Q13188); settings: 10 μM SCO-101, mean of assay duplicates, read-out: Kinase activity (percentage of DMSO control)
T7 construct: purchased MRC in Dundee (Premier Screen service)
Text: as §1, §2, §3

MKK1 = MKK1 (Homo sapiens, UniProt Q02750); settings: 10 μM SCO-101, mean of assay duplicates, read-out: Kinase activity (percentage of DMSO control)
Text: as §1, §2, §3

ZAP70 = target: T8, ZAP70 (Homo sapiens, UniProt P43403); settings: 10 μM SCO-101, mean of assay duplicates, read-out: Kinase activity (percentage of DMSO control)
T8 construct: MRC Dundee (screening service)
Text: as §1, §2, §3

CLK2 = target: T9, CLK2 (Homo sapiens, UniProt P49760); settings: 10 μM SCO-101, mean of assay duplicates, read-out: Kinase activity (percentage of DMSO control)
T9 construct: MRC in Dundee (screening service)
Text: as §1, §2, §3

TrkA = target: T10, TrkA (Homo sapiens, UniProt P04629); settings: 10 μM SCO-101, mean of assay duplicates, read-out: Kinase activity (percentage of DMSO control)
T10 construct: purchased MRC in Dundee (Premier Screen service)
Text: as §1, §2, §3

GCK = target: T11, GCK (Homo sapiens, UniProt Q12851); settings: 10 μM SCO-101, mean of assay duplicates, read-out: Kinase activity (percentage of DMSO control)
T11 construct: MRC in Dundee (screening service)
Text: as §1, §2, §3

p38b MAPK = p38b MAPK (Homo sapiens, UniProt Q15759); settings: 10 μM SCO-101, mean of assay duplicates, read-out: Kinase activity (percentage of DMSO control)
Text: as §1, §2, §3

IR = target: T12, IR (Homo sapiens, UniProt P06213); settings: 10 μM SCO-101, mean of assay duplicates, read-out: Kinase activity (percentage of DMSO control)
T12 construct: MRC Dundee (screening service)
Text: as §1, §2, §3

IRAK4 = IRAK4 (Homo sapiens, UniProt Q9NWZ3); settings: 10 μM SCO-101, mean of assay duplicates, read-out: Kinase activity (percentage of DMSO control)
Text: as §1, §2, §3

MELK = target: T13, MELK (Homo sapiens, UniProt Q14680); settings: 10 μM SCO-101, mean of assay duplicates, read-out: Kinase activity (percentage of DMSO control)
T13 construct: MRC Dundee (screening service)
Text: as §1, §2, §3

EPH-A2 = target: T14, EPH-A2 (Homo sapiens, UniProt P29317); settings: 10 μM SCO-101, mean of assay duplicates, read-out: Kinase activity (percentage of DMSO control)
T14 construct: purchased MRC in Dundee (Premier Screen service)
Text: as §1, §2, §3

TIE2 = target: T15, TIE2 (Homo sapiens, UniProt Q02763); settings: 10 μM SCO-101, mean of assay duplicates, read-out: Kinase activity (percentage of DMSO control)
T15 construct: MRC Dundee (screening service)
Text: as §1, §2, §3

PKCa = PKCa (Homo sapiens, UniProt P17252); settings: 10 μM SCO-101, mean of assay duplicates, read-out: Kinase activity (percentage of DMSO control)
Text: as §1, §2, §3

JAK3 = JAK3 (Homo sapiens, UniProt P52333); settings: 10 μM SCO-101, mean of assay duplicates, read-out: Kinase activity (percentage of DMSO control)
Text: as §1, §2, §3

MARK2 = target: T16, MARK2 (Homo sapiens, UniProt Q7KZI7); settings: 10 μM SCO-101, mean of assay duplicates, read-out: Kinase activity (percentage of DMSO control)
T16 construct: MRC Dundee (screening service)
Text: as §1, §2, §3

TESK1 = target: T17, TESK1 (Homo sapiens, UniProt Q15569); settings: 10 μM SCO-101, mean of assay duplicates, read-out: Kinase activity (percentage of DMSO control)
T17 construct: purchased MRC in Dundee (Premier Screen service)
Text: as §1, §2, §3

CK1γ2 = target: T18, CK1γ2 (Homo sapiens, UniProt P78368); settings: 10 μM SCO-101, mean of assay duplicates, read-out: Kinase activity (percentage of DMSO control)
T18 construct: purchased MRC Dundee, Premier Screen (contract screening service)
Text: as §1, §2, §3

PDGFRA = target: T19, PDGFRA (Homo sapiens, UniProt P16234); settings: 10 μM SCO-101, mean of assay duplicates, read-out: Kinase activity (percentage of DMSO control)
T19 construct: purchased MRC in Dundee (Premier Screen service)
Text: as §1, §2, §3

RIPK2 = RIPK2 (Homo sapiens, UniProt O43353); settings: 10 μM SCO-101, mean of assay duplicates, read-out: Kinase activity (percentage of DMSO control)
Text: as §1, §2, §3

p38g MAPK = target: T20, p38g MAPK (Homo sapiens, UniProt P53778); settings: 10 μM SCO-101, mean of assay duplicates, read-out: Kinase activity (percentage of DMSO control)
T20 construct: purchased MRC Dundee, Premier Screen (contract screening service)
Text: as §1, §2, §3

TGFBR1 = target: T21, TGFBR1 (Homo sapiens, UniProt P36897); settings: 10 μM SCO-101, mean of assay duplicates, read-out: Kinase activity (percentage of DMSO control)
T21 construct: purchased MRC Dundee, Premier Screen (contract screening service)
Text: as §1, §2, §3

ABL = target: T22, ABL (Homo sapiens, UniProt P00519); settings: 10 μM SCO-101, mean of assay duplicates, read-out: Kinase activity (percentage of DMSO control)
T22 construct: MRC in Dundee (screening service)
Text: as §1, §2, §3

TAK1 = target: T23, TAK1 (Homo sapiens, UniProt O43318); settings: 10 μM SCO-101, mean of assay duplicates, read-out: Kinase activity (percentage of DMSO control)
T23 construct: purchased MRC Dundee, Premier Screen (contract screening service)
Text: as §1, §2, §3

BRSK2 = target: T24, BRSK2 (Homo sapiens, UniProt Q8IWQ3); settings: 10 μM SCO-101, mean of assay duplicates, read-out: Kinase activity (percentage of DMSO control)
T24 construct: MRC in Dundee (screening service)
Text: as §1, §2, §3

OSR1 = target: T25, OSR1 (Homo sapiens, UniProt O95747); settings: 10 μM SCO-101, mean of assay duplicates, read-out: Kinase activity (percentage of DMSO control)
T25 construct: MRC in Dundee (screening service)
Text: as §1, §2, §3

Src = target: T26, Src (Homo sapiens, UniProt P12931); settings: 10 μM SCO-101, mean of assay duplicates, read-out: Kinase activity (percentage of DMSO control)
T26 construct: purchased MRC Dundee, Premier Screen (contract screening service)
Text: as §1, §2, §3

MAP4K5 = target: T27, MAP4K5 (Homo sapiens, UniProt Q9Y4K4); settings: 10 μM SCO-101, mean of assay duplicates, read-out: Kinase activity (percentage of DMSO control)
T27 construct: purchased MRC Dundee, Premier Screen (contract screening service)
Text: as §1, §2, §3

T3 sequence (O14757 whole entry, species assumed): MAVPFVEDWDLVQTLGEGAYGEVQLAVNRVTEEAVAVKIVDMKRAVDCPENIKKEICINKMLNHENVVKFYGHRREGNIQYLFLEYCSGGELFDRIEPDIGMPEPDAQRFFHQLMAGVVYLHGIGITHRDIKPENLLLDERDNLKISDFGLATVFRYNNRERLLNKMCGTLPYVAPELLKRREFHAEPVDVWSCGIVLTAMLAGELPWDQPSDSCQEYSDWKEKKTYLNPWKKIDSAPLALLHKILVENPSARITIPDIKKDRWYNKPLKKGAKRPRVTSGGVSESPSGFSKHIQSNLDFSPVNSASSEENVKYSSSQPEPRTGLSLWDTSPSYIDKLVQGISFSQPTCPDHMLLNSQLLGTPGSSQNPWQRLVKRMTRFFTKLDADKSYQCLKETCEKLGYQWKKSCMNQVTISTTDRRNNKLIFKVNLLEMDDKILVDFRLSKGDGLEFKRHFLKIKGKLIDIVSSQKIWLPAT
Chain of MST4 (Q9P289 whole entry, species assumed): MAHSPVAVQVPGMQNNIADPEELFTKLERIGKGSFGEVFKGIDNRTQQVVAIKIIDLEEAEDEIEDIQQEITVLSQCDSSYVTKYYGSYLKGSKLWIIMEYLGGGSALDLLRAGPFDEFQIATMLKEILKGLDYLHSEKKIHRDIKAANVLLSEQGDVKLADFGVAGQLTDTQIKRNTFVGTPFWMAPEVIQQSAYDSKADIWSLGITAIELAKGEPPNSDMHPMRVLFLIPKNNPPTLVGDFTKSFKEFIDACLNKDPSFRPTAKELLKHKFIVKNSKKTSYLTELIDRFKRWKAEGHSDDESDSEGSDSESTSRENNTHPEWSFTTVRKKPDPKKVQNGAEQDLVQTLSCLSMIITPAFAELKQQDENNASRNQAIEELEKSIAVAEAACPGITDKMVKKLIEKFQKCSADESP
Chain of MKK1 (Q02750 whole entry, species assumed): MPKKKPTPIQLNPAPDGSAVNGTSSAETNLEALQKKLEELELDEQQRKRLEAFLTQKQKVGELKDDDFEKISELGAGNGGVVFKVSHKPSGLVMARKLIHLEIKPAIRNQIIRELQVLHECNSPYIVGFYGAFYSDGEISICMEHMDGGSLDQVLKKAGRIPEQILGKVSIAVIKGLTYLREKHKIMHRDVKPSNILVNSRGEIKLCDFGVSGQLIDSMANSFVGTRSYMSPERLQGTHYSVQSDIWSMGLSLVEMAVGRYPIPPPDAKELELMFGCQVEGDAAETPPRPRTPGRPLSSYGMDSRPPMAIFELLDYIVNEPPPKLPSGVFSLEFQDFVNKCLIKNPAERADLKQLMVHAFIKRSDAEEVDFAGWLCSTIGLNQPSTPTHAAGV
T20 sequence (P53778 whole entry): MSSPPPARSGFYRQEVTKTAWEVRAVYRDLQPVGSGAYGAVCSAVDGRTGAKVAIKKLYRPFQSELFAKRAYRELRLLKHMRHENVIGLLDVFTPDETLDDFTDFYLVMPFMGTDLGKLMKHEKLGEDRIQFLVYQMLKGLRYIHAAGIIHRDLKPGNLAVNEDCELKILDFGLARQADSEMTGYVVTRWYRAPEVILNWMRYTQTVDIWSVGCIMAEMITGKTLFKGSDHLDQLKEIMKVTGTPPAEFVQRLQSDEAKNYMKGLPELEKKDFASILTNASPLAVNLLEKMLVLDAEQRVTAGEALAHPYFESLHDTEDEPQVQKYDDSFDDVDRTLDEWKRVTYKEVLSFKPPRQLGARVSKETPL
T13 sequence (Q14680 whole entry, species assumed): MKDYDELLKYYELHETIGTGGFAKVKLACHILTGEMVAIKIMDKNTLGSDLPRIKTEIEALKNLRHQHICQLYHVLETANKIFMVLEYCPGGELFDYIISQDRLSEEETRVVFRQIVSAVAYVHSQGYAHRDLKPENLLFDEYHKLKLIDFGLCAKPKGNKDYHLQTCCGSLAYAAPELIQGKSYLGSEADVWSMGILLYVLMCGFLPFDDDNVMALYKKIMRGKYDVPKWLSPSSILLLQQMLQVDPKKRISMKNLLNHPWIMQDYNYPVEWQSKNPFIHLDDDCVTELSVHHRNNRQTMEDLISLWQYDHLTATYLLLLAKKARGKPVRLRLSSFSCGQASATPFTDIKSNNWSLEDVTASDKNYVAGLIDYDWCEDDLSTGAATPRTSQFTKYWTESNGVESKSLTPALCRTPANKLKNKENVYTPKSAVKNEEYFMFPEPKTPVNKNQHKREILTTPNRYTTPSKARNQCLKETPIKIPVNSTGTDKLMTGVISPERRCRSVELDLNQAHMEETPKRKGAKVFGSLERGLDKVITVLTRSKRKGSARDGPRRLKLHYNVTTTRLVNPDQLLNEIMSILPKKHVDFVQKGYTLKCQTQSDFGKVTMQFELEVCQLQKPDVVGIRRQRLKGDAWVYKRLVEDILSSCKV
T26 sequence (P12931 whole entry, species assumed): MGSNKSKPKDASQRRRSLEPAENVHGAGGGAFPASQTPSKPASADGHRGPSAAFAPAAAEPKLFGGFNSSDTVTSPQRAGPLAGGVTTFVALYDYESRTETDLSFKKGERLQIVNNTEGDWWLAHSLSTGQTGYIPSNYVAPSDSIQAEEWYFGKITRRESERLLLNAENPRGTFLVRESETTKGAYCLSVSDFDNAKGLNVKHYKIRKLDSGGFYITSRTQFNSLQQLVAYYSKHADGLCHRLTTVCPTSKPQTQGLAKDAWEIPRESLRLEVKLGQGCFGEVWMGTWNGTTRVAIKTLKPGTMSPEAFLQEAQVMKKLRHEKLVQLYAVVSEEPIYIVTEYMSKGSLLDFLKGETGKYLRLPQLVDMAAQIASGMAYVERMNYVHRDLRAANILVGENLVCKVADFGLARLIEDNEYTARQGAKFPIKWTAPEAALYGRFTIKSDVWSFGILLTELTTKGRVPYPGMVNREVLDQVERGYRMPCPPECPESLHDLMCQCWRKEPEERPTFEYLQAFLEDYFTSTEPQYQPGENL
T10 sequence (P04629 33-796, species assumed): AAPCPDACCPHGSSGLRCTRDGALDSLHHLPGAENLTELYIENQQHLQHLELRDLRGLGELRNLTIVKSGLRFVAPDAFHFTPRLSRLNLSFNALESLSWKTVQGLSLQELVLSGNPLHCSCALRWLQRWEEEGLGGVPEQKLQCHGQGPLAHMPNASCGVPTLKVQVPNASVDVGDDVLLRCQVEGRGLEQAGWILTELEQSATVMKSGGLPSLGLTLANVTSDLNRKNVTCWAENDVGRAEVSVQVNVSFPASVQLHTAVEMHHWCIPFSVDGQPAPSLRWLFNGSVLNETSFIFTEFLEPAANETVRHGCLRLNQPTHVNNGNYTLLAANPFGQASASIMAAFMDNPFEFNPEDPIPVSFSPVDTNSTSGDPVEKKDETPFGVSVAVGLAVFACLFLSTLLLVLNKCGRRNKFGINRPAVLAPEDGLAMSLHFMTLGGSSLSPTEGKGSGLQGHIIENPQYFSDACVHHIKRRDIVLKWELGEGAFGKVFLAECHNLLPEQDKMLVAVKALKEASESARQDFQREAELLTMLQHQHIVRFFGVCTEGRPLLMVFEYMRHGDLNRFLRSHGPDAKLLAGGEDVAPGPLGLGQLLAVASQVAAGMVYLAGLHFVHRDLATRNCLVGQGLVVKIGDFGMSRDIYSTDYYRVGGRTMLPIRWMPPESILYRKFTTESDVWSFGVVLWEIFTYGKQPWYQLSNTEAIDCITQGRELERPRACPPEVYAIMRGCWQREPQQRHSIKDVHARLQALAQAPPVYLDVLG
T18 sequence (P78368 whole entry): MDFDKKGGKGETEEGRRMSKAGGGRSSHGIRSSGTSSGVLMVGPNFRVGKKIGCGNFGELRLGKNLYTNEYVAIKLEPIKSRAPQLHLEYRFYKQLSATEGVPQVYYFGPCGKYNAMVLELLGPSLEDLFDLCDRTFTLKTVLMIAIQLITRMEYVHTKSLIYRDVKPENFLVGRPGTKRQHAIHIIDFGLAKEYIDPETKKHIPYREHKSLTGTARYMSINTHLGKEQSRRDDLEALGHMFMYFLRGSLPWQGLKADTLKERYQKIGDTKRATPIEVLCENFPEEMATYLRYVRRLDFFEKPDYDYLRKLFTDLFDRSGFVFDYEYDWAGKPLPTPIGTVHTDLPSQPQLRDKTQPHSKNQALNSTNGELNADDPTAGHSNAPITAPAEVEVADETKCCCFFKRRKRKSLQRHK

For `O=C(Nc1cc(C(F)(F)F)cc(C(F)(F)F)c1)Nc1ccc(Br)cc1-c1nnn[nH]1` [SCO-101], the remaining activity at 10 µM (EPH-B1) was 124%, the remaining activity at 10 µM (JNK1) was 105% and the remaining activity at 10 µM (MST4) was 117%. It also gave a remaining activity at 10 µM (CHK1) of 195%, a remaining activity at 10 µM (PAK6) of 123% and a remaining activity at 10 µM (JNK2) of 105%. The remaining activity at 10 µM (ERK5) was 90%, the “Kinase activity (percentage of DMSO control)” value (PHK) was 88 percentage of DMSO control and the remaining activity at 10 µM (IRR) was 131%. The remaining activity at 10 µM (MST2) was 146%, the remaining activity at 10 µM (MKK1) was 118% and the remaining activity at 10 µM (ZAP70) was 99%. It also gave a remaining activity at 10 µM (CLK2) of 86%, a remaining activity at 10 µM (TrkA) of 25% and a remaining activity at 10 µM (GCK) of 92%. The remaining activity at 10 µM (p38b MAPK) was 115%, the remaining activity at 10 µM (IR) was 98% and the remaining activity at 10 µM (IRAK4) was 112%. It also gave a remaining activity at 10 µM (MELK) of 95%, a remaining activity at 10 µM (EPH-A2) of 60% and a remaining activity at 10 µM (TIE2) of 95%. For the same compound, the remaining activity at 10 µM (PKCa) was 116%, the remaining activity at 10 µM (JAK3) was 121% and the remaining activity at 10 µM (MARK2) was 100%. It also gave a remaining activity at 10 µM (TESK1) of 54%, a remaining activity at 10 µM (CK1γ2) of 109% and a remaining activity at 10 µM (PDGFRA) of 62%. It also gave a remaining activity at 10 µM (RIPK2) of 121%, a remaining activity at 10 µM (p38g MAPK) of 110% and a remaining activity at 10 µM (TGFBR1) of 111%. The remaining activity at 10 µM (ABL) was 85%, the remaining activity at 10 µM (TAK1) was 107% and the remaining activity at 10 µM (BRSK2) was 81%. For the same compound, the remaining activity at 10 µM (OSR1) was 94%, the remaining activity at 10 µM (Src) was 105% and the remaining activity at 10 µM (MAP4K5) was 108%.
